Reference: paper PMC12073189, “Synthesis and Evaluation of a Novel Zuranolone Analog with High GABAA Receptor PAM Activity and Excellent Pharmacokinetic Profiles” (Molecules, 2025)
Where “and” joins values, the source holds several entries; their conditions need not be identical. Equal entries are not always repeated. Entries after “also recorded” stand apart in the source; their conditions may differ. Where two headings read alike, the source gives them in different places.

What was measured:
α1β2γ2 GABAA receptor = target: T1, α1β2γ2 GABAA receptor (Homo sapiens, UniProt P14867+P47870); test: Whole-cell electrophysiology of GABA-evoked currents, LTK cells; format: cell-based; conditions: for Emax: current induced by 1 μmol/L GABA = 100%
T1 construct: expressed in transfected cells
T1 sequence (P14867 28-456): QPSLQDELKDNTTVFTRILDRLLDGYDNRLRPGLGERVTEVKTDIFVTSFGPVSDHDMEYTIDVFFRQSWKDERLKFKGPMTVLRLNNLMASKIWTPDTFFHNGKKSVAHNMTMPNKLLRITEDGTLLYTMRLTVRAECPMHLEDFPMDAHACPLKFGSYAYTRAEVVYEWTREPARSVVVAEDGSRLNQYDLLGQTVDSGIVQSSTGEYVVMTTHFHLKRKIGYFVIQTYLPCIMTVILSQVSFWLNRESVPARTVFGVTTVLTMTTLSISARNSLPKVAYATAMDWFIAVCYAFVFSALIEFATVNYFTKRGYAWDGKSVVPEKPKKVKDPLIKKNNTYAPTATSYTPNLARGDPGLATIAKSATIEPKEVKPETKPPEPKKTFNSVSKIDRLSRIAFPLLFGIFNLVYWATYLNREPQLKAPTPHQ
T1 sequence (P47870 25-512 limits assumed): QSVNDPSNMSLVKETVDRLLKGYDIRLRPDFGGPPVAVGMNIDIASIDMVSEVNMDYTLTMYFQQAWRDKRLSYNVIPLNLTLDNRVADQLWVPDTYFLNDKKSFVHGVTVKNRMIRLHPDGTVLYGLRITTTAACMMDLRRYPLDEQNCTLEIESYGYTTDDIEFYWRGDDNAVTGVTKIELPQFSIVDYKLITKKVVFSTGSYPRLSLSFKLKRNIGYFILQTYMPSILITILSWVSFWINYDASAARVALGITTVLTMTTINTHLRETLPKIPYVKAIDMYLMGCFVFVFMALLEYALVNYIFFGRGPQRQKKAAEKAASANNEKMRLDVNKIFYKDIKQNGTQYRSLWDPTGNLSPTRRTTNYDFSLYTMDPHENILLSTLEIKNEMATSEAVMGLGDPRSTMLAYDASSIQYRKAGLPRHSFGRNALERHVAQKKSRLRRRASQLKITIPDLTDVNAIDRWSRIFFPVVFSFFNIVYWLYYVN
T1 sequence (P18507 40-475 partner): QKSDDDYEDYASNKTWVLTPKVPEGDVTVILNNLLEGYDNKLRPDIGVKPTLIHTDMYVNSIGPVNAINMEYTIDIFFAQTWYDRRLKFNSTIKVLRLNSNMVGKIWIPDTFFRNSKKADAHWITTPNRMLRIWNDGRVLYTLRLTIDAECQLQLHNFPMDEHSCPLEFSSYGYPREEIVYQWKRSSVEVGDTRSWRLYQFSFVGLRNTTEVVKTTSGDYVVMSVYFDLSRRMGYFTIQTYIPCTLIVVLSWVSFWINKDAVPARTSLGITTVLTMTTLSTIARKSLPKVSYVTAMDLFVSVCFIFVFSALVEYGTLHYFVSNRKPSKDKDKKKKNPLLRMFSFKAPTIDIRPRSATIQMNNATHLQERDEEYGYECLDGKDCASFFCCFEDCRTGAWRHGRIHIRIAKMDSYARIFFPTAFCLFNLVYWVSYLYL
Protocol: The α1β2γ2 and α4β3δ GABAA receptor subtypes, representing synaptic and extrasynaptic subunit compositions in neurons, are widely utilized for screening new NAS drugs. In this study, a preliminary SAR study was conducted on a series of Zuranolone analogs using the LogP values predicted by ADMETlab3.0 software, recombinant human GABAA receptor cell lines, and in vitro liver microsome stability assays. The results are summarized in Table 1, Table 2, and Table 3, respectively.
The effects of Zuranolone and synthetic analogs on GABA-evoked currents were assessed in LTK cells stably expressing α1β2γ2 GABAA receptor subunits (n = 3) or CHO cells transiently expressing α4β3δ receptors (n = 3). Whole-cell mode recordings were conducted using the HEKA EPC-10 amplifier and analyzed with PatchMaster software (version 2x90, HEKA Elektronik, Lambrecht, Germany). High-throughput whole-cell recordings were performed using the Q-Patch method from Sophion. Test substances were dissolved in DMSO (dimethyl sulfoxide) to prepare 10 mmol/L stock solutions, then diluted with perfusion bath solution to concentrations ranging from 0.01 to 10 μmol/L. In this experiment, the effects of Zuranolone and its synthetic analogs on GABA-induced currents were examined in the presence of a submaximal agonist concentration at 1 μmol/L GABA (EC20). Cells were pre-incubated with increasing doses of test substances for 30 s, followed by 2 s of GABA stimulation, and currents were recorded. The maximum efficacy (Emax) of the GABAA receptor is expressed with the current induced by 1 μmol/L GABA taken as 100%, and the percentage after treatment with the test compound is calculated. The EC50 values are determined by fitting the three concentration–response curves recorded from three cells.

[1] = Liver microsome metabolic stability (HLM); format: in vitro ADME, human; design: microsomal CLint at 1 μmol/L: unit not given here; conditions: for half-life at 1 μmol/L: read-out: HLM T1/2
Protocol: (§1) We quantified S1–S15 and Zuranolone using a UPLC-MS/MS (Agilent 1290 Infinity II UHPLC (Agilent Technologies, Santa Clara, CA, USA) coupled with a QTRAP 5500 MS/MS (ESI source) (SCIEX, Redwood City, CA, USA for MS/MS). The method assessed the content level of S9 and Zuranolone in microsome metabolism and in rat brain tissue and plasma. An ACQUITY UPLC Peptide BEH C18 column (Waters; 50 × 2.1 mm, 1.7 μm; 60 °C; Waters Corporation, Milford, MA, USA) was used with a mobile phase of 0.02% propionic acid in water (A) and acetonitrile (B). The gradient elution of the mobile phase B is carried out as follows: it is 10% from 0 to 0.5 min, 90% from 0.8 to 2.5 min, and 10% from 2.8 to 3.5 min, with a flow rate of 0.40 mL/min. Quantitative analysis was performed on a QTRAP 5500 MS (SCIEX, Redwood City, CA, USA) in positive ionization mode with MRM (multiple reaction monitoring), using progesterone-d9 as the internal standard. MRM transitions and parameters were optimized for each analyte, with collision energies of 25 V (S1–S15), 23 V (Zuranolone), and 30 V (IS), and declustering potentials of 80 V (S1–S15), 90 V (Zuranolone), and 180 V (IS). Other conditions were as follows: curtain gas 10 psi, collision gas ‘medium’, ion spray voltage 5500 V, temperature 500 °C, and ionization source gases 1 and 2 at 50 psi.
To evaluate the metabolic stability of compounds S1–S15 and Zuranolone in RLM and HLM, we designed the following in vitro liver microsome metabolism assay protocol. In a 1.5 mL centrifuge tube, sequentially add 173 μL of PBS (0.1 M, pH 7.4), 5 μL of liver microsomes (20 mg/mL), and 2 μL of the test compound (100 μmol/L). After thorough mixing, pre-incubate at 37 °C for 10 min. Subsequently, add 20 μL of NADPH to initiate the metabolism, with a parallel control without NADPH, to validate the background signal. Samples were collected at 0, 5, 10, 20, 30, and 60 min post-reaction initiation. At each designated time point, we quenched the reaction with ice-cold acetonitrile (600 μL). After centrifuging the mixture, we analyzed the supernatant using UPLC-MS/MS. For data analysis, the compound concentration at 0 min was set as 100%, with concentrations at subsequent time points expressed as residual percentages relative to the initial value, and the in vitro half-life (T1/2) and intrinsic clearance (CLint) were calculated.

[2] = Brain distribution in rats; format: in vivo, rat; conditions: i.g. 24.4 μmol/kg
Protocol: as §1
Zuranolone was solubilized in 5% DMSO with solutol HS 15 in saline. S9 was solubilized in 10% DMSA with 30% SBECD (Zibo Qianhui Biological Technology Co., Ltd., Zibo, China) in saline. After fasting for 12 h, rats (n = 6 per group) were administered Zuranolone and S9 intragastrically (i.g.) at a dose of 24.4 μmol/kg, and intravenously (i.v.) at 6.1 μmol/kg. Blood samples (200 μL) were collected into 1.5 mL tubes containing heparin at 15 min, 30 min, 1, 2, 3, 4, 6, 8, 12, 24, 48, and 96 h after i.g. or at 5, 15, 30 min, and 1, 2, 3, 4, 6, 8, 12, 24, 48, 96 h after i.v. Plasma was separated by centrifugation for 5 min (8000 rpm, 4 °C) and stored at −80 °C immediately.

[3] = tested on: PTZ-induced acute seizures; test: Pentylenetetrazole (PTZ)-induced seizure test; format: in vivo, rat; conditions: rats; for effect on seizure incidence: oral 6, 12, 24 μmol/kg, PTZ 50 mg/kg; for latency to tonic seizures: n = 6
Protocol: PTZ can trigger dose-dependent tonic seizures through its antagonistic effects on GABAA receptor function. To evaluate target engagement at GABAA receptors, Zuranolone and S9 were tested in a PTZ-induced acute seizure model in rats, which is widely used to assess GABAergic activity. Based on their pharmacokinetic study results, S9 or Zuranolone was administered orally at the same doses (6, 12, and 24 μmol/kg) 1 h prior to PTZ challenge.
We randomly divided rats into 7 groups (n = 6): three same-dose groups for both Zuranolone and S9 (6, 12, 24 μmol/kg) and a vehicle control group (30% SBECD). PTZ can selectively antagonize the GABAA receptors at a dose below 60 mg/kg, while higher doses lead to non-competitive antagonism of GABAA receptors and activation of NMDA receptors. Thus, a dose of 50 mg/kg was applied in this experiment. After intragastric administration of the test drugs or vehicle for 1 h, the animals were injected intraperitoneally with PTZ saline solution at 50 mg/kg. The rats were then placed in observation chambers to monitor the latency of clonic seizures (seizures lasting ≥3 s with LORR) and tonic seizures (the rigid extension of limbs, forming an angle of more than 90° with the body plane) within 1 h.

Row | SMILES | EC50 (α1β2γ2 GABAA receptor; LTK cells, 1 μmol/L GABA (EC20), n = 3, read-out: α1β2γ2 EC50) | Emax (α1β2γ2 GABAA receptor; LTK cells, n = 3) | enhanced GABAA receptor potency compared to S28 (α1β2γ2 GABAA receptor; S28 previously reported ref 25) | efficacy as % of that of Zuranolone (α1β2γ2 GABAA receptor; synaptic GABAA receptors) | potency as % of that of Zuranolone (α1β2γ2 GABAA receptor; synaptic GABAA receptors) | efficacy as % of that of Zuranolone (α1β2γ2 GABAA receptor; synaptic and extrasynaptic GABAA receptors, not separated) | fold longer T1/2 than Zuranolone ([1]; HLM) | fold lower CLint than Zuranolone ([1]; HLM) | microsomal CLint at 1 μmol/L ([1]; pH 7.4, human liver microsomes) | half-life at 1 μmol/L ([1]; pH 7.4, human liver microsomes) | AUCBrain 0–t [2] | F AUCBrain 0–t S9/Zuranolone (relative brain bioavailability) [2] | Brain concentration ([2]; 0.5 h) | Brain concentration ([2]; 2 h) | Brain concentration ([2]; 6 h) | Brain concentration ([2]; 24 h) | effect on seizure incidence [3] | EC50 (α1β2γ2 GABAA receptor) | latency to tonic seizures ([3]; oral 12 μmol/kg 1 h before PTZ 50 mg/kg i.p.) | latency to tonic seizures ([3]; oral 24 μmol/kg 1 h before PTZ 50 mg/kg i.p.)
1 | C[C@@]1(O)CC[C@H]2[C@H](CC[C@@H]3[C@@H]2CC[C@]2(C)[C@@H](C(=O)Cn4cnn(-c5ccnc(OCC(F)(F)F)c5)c4=O)CC[C@@H]32)C1 [S9] | 50 ± 10 nM | 675 ± 163% | over 1 fold | 76% | 250% | approximately 75% | 1.2 fold | 1.2 fold | 9000 | 2.57 h | 30,969 nmol/kg·h and 30,969 ± 8450 nmol/kg·h | 324% | 189 nmol/kg and 189 ± 30 nmol/kg | 1895 ± 593 nmol/kg | 2132 nmol/kg and 2132 ± 683 nmol/kg | 175 nmol/kg and 175 ± 35 nmol/kg | neither compound significantly affected seizure incidence |  |  | 
2 | C[C@@]1(O)CC[C@H]2[C@H](CC[C@@H]3[C@@H]2CC[C@]2(C)[C@@H](C(=O)Cn4cc(C#N)cn4)CC[C@@H]32)C1 [Zuranolone] |  | 894 ± 40% |  |  |  |  |  |  |  | 2.07 h | 9549 nmol·h/kg and 9549 ± 2529 nmol·h/kg |  | 3103 nmol/kg and 3103 ± 795 nmol/kg | 2220 ± 574 nmol/kg | 193 nmol/kg and 193 ± 56 nmol/kg | below the quantification limit (BQL); also recorded: BQL ^b | neither compound significantly affected seizure incidence | 123 ± 20 nM | 1748.0 ± 555.0 s | 2995.0 ± 430.6 s
